Reference: patent publication US5474757A, “Prevention of acetaminophen overdose toxicity with organosulfur compounds” (priority 1992, dated 1995)
Where “and” joins values, the source holds several entries; their conditions need not be identical. Identical values can stand only once. Entries after “also recorded” stand apart in the source; their conditions may differ. Like-named read-outs stand apart in the source and are kept apart here.

Columns and labels:
[1] = test system: acetaminophen-induced hepatotoxicity; test: animal or person
From the text: Blood samples were obtained from the jugular vein of CO2 -anesthetizedanimals. The blood was allowed to clot at room temperature and serum was separated by centrifugation. […] Biochem. Biophys.
Randomly-selected samples of the major hepatic lobe were fixed in 10% buffered formalin for histological evaluation. Samples were subsequently embedded in Paraplast (Fisher Scientific) and sectioned at 6 μm on a rotary microtome. Tissue sections were stained with hematoxylin-eosine-phloxine for examination. Extent of tissue damage was determined using a Presage CV-6 Image Analysis System (Advanced Imaging Concepts, Inc.). Images of randomly-selected slides (3 slides/animal, 2-3 animals/group) containing full cross sections of the major hepatic lobe were projected onto a computer screen and the image captured. The areas of damage were then outlined on the screen and the areas quantated using interactive software. The area of damage was shown as a percentage of the total hepatic area for each section. All determinations were made without knowledge of treatment group.
Data were analyzed by the Newman-Keuls multiple comparison procedure on the rank score analysis.
All experiments were replicated at least once.
As a Comparative Example, 300 mg/kg N-acetylcysteine was also administered immediately after administration of 0.2 g/kg acetaminophen.
As a Comparative Example, 300 mg/kg N-acetylcysteine was also administered 1 hour after administration of 0.2 g/kg acetaminophen.

hepatotoxicity = settings: cited from earlier work
P-450 2E1 [2] = settings: cited from earlier work; for liver microsomal P-450 2E1-dependent (NDMA demethylase) activity: treatment of rats
P-450 2E1 [3] = test: Hepatic microsomal NDMA demethylase activity after a single oral dose in mice; format: in vivo, mouse; settings: for NDMA demethylase activity, % of the control level: 50 mg/kg single oral dose
Procedure: (§1) Biochem. Biophys. 238:42-48 (1985).
(§2) In Example 3, this effect was studied in mice. In Example 3, changes in hepatic monooxygenase enzymes after a single oral dose of DASO2 were studied. DASO2 (50 mg/kg) was administrated to mice intragastrically and sacrificed at the indicated time. Control (0 time) mice received distilled water only.
(§3) Hepatic microsomal NDMA demethylase activity (O) is expressed as nmol HCHO produced/min/mg. Pentoxyresorufin ([ ]) and ethoxyresorufin dealkylase activities are expressed as pmol resorufin produced/min/mg. Each point represents the mean ±S.D. of five separate microsomal preparations. *p<0.05 compared to control.

P-450 1A2 = test: Hepatic microsomal ethoxyresorufin (EORR) dealkylase activity after a single oral dose in mice; format: in vivo, mouse
Procedure: as §1, §2, §3

[4] = test system: acetaminophen-induced hepatotoxicity; test: Protective effect against acetaminophen overdose in rats (serum GPT, LDH, liver damage); format: in vivo, rat (male Fisher 344)
Procedure: Brady et al., "Effect of […] […] Biochem. […] Extent of tissue damage was determined using a […]-6 Image Analysis System (Advanced Imaging Concepts, Inc.). […] All determinations were made without knowledge of treatment group. […] All experiments were replicated at least once.

P-450 2E1 [5] = settings: isolated rat liver microsomes; cited from earlier work
[6] = test system: p-nitrophenol hydroxylase; settings: isolated rat liver microsomes; cited from earlier work
acetaminophen overdose = settings: cited from earlier work; for protective action: animals; for protection in acetaminophen overdose: Prescott et al.
[7] = test system: acetaminophen bioactivation; settings: cited from earlier work
[8] = APAP only, 0.2 g/kg oral, fasted mice, 24 h
[9] = 5 mg/kg oral, immediately (0 min) after APAP 0.2 g/kg
[10] = 10 mg/kg oral, 20 min after APAP 0.2 g/kg
[11] = 25 mg/kg oral, 20 min after APAP 0.2 g/kg
[12] = 25 mg/kg oral, 1 hour after APAP 0.2 g/kg
[13] = 25 mg/kg oral, immediately (0 min) after APAP 0.2 g/kg
[14] = 50 mg/kg oral, immediately (0 min) after APAP 0.2 g/kg
[15] = 5 mg/kg oral, 1 h after APAP 0.4 g/kg
[16] = 5 mg/kg oral, 3 hours after APAP 0.4 g/kg
[17] = 15 mg/kg oral, 1 h after APAP 0.4 g/kg
[18] = 50 mg/kg oral, 1 hour after APAP 0.4 g/kg, mean ± SD of five rats
[19] = 50 mg/kg oral, 3 hours after APAP 0.4 g/kg
[20] = 50 mg/kg oral, 6 hours after APAP 0.4 g/kg
[21] = orally less than 24 hours after the overdose
[22] = 300 mg/kg oral, 1 hour after APAP 0.2 g/kg
[23] = 300 mg/kg oral, immediately after APAP 0.2 g/kg
[24] = 600 mg/kg oral, 1 hour after APAP 0.4 g/kg
[25] = 600 mg/kg oral, 6 hours after APAP 0.4 g/kg

## CC(=O)Nc1ccc(O)cc1 [APAP, N-acetyl-p-aminophenol, reference compound]
[1]; [8]
  Extent of liver damage: 26-40%
  LDH: 17227 ± 3464 U/L
  Survival: 2/5
[1]; acetaminophen 0.2 g/kg, mice
  increase of serum LDH: 20 fold
[1]; acetaminophen 0.2 g/kg, surviving mice (FIG. 2B)
  liver histology: hepatocellular necrosis; also recorded: typical centrilobular degeneration, necrosis, and inflammation
hepatotoxicity; 4 hours after ingestion
  plasma acetaminophen level always associated with hepatic damage: greater than 300 mcg/ml
hepatotoxicity; 12 hours after ingestion
  plasma acetaminophen level always associated with hepatic damage: greater than 50 mcg/ml
hepatotoxicity; acute overdoses of less than 15 g
  fatalities: rare
hepatotoxicity; in vivo
  single dose after which hepatotoxicity may occur: 7.5 to 10 g
hepatotoxicity; overdose
  plasma acetaminophen half-life above which hepatic necrosis is likely: exceeds 4 hours

## C=CCS(=O)(=O)CC=C [DASO2, diallyl sulfone]
P-450 2E1 [2]; 200 mg/kg, rats
  liver microsomal NDMA demethylase activity: marked decrease
P-450 2E1 [2]
  liver microsomal P-450 2E1-dependent (NDMA demethylase) activity: decreased
[1]; [9]
  Extent of liver damage: 3-5%
  GPT: 51 ± 8 U/L
  LDH: 433 ± 98 U/L
  Survival: 5/5
[1]; [10]
  GPT: 212 ± 1 U/L
  LDH: 16639 ± 8578 U/L
  Survival: 5/5
[1]; [11]
  GPT: 89 ± 13 U/L
  LDH: 648 ± 231 U/L
  Survival: 5/5
[1]; [12]
  Extent of liver damage: 3-10%
  GPT: 110 ± 70 U/L
  LDH: 1340 ± 1568 U/L
  Survival: 5/5
[1]; [13]
  Extent of liver damage: 5-10%
  GPT: 66 ± 18 U/L and 84 ± 37 U/L
  LDH: 611 ± 252 U/L
  Survival: 5/5
[1]; [14]
  Extent of liver damage: 4-9%
  GPT: 79 ± 5 U/L
  LDH: 772 ± 1138 U/L and 772 ± 138 U/L
  Survival: 5/5
[1]; Mus musculus, read-out: dose sufficient to produce maximal protection
  ED (maximal): 5 mg/kg
[1]; Mus musculus, read-out: low dose at which protective effect was demonstrated
  minimal effective dose: 5 mg/kg
P-450 2E1 [3]; 0.5 hours
  NDMA demethylase activity, % of the control level: 31%
P-450 2E1 [3]; 1 hour
  NDMA demethylase activity, % of the control level: 54%
P-450 2E1 [3]; 3 hours
  NDMA demethylase activity, % of the control level: 49%
P-450 2E1 [3]; 6 hours
  NDMA demethylase activity, % of the control level: 73%
P-450 2E1 [3]; oral administration, mice
  hepatic cytochrome P-450 2E1 activity: rapid decreases
P-450 1A2; 50 mg/kg single oral dose, 0.5 hours
  ethoxyresorufin (EORR) dealkylase activity, % of control level: 79%
P-450 1A2; 50 mg/kg single oral dose, 1 hour
  ethoxyresorufin (EORR) dealkylase activity, % of control level: 39%
P-450 1A2; 50 mg/kg single oral dose, 3 hours
  ethoxyresorufin (EORR) dealkylase activity, % of control level: 52%
P-450 1A2; 50 mg/kg single oral dose, 6 hours
  ethoxyresorufin (EORR) dealkylase activity, % of control level: 46%
P-450 1A2; 50 mg/kg single oral dose, after 15 hours
  EORR dealkylase activity: returned to control levels
P-450 1A2; oral administration, mice
  hepatic cytochrome P-450 1A2 activity: rapid decreases
[4]; [15]
  Extent of liver necrosis (grade): 1
  GPT: 162 ± 27.3 U/L
  LDH: 377 ± 71 U/L
[4]; [16]
  Extent of liver damage: 23-38%
  GPT: 139 ± 46 U/L
[4]; [17]
  Extent of liver necrosis (grade): 1
  GPT: 52 ± 8.2 U/L
  LDH: 222 ± 44 U/L
[4]; 50 mg/kg oral, 1 h after APAP 0.4 g/kg
  Extent of liver necrosis (grade): 0
[4]; 50 mg/kg oral, 1 hour after APAP 0.4 g/kg
  Extent of liver damage: 0-5%
[4]; [18]
  GPT: 48 ± 9 U/L and 48 ± 9.6 U/L
  LDH: 279 ± 50 U/L and 279 ± 41 U/L
[4]; 50 mg/kg oral, 3 h after APAP 0.4 g/kg
  Extent of liver necrosis (grade): 1
[4]; [19]
  Extent of liver damage: 4-8%
  GPT: 133 ± 64 U/L
  LDH: 315 ± 120 U/L
[4]; 50 mg/kg oral, 6 h after APAP 0.4 g/kg
  Extent of liver necrosis (grade): 2
[4]; [20]
  Extent of liver damage: 21-40%
  GPT: 182 ± 47 U/L
  LDH: 375 ± 111 U/L
[4]; Rattus norvegicus, rats, read-out: low dose at which protective effect was demonstrated
  minimal effective dose: 5 mg/kg

## C=CC[S+]([O-])CC=C [DASO, diallyl sulfoxide]
P-450 2E1 [2]
  liver microsomal P-450 2E1-dependent (NDMA demethylase) activity: decreased
P-450 2E1 [5]
  inhibition of P-450 2E1-catalyzed NDMA demethylase: competitively
[6]
  inhibition of p-nitrophenol hydroxylase: competitively

## N[C@@H](CS)C(=O)O [L-cysteine]
Acetaminophen overdose
  protective action: protective action
Acetaminophen overdose; [21]
  effectiveness in acetaminophen overdose: effective

## CSCC[C@H](N)C(=O)O [L-methionine]
Acetaminophen overdose
  protection in acetaminophen overdose: some protection
  protective action: protective action
Acetaminophen overdose; [21]
  effectiveness in acetaminophen overdose: effective

## CC(=O)N[C@@H](CS)C(=O)O [N-AC, N-acetyl-L-cysteine, reference compound]
[1]; [22]
  Extent of liver damage: 10-17%
  GPT: 131 ± 68 U/L
  LDH: 1140 ± 96 U/L
  Survival: 5/5
[1]; [23]
  Extent of liver damage: 0%
  GPT: 56 ± 4 U/L
  LDH: 629 ± 124 U/L
  Survival: 5/5
[1]; 300 mg/kg, 1 hour after acetaminophen, mice
  protection against hepatotoxicity: partial protection
[1]; 300 mg/kg, immediately after acetaminophen, mice
  protection against acetaminophen toxicity: protected against acetaminophen toxicity
[1]; 3 hours after acetaminophen dosing, mice (data not shown)
  effectiveness against acetaminophen toxicity: neither DASO2, N-AC nor the combination treatment was effective
Acetaminophen overdose
  protective action: protective action
Acetaminophen overdose; given orally
  effectiveness in acetaminophen overdose: effective
Acetaminophen overdose; [21]
  effectiveness in acetaminophen overdose: effective
[4]; [19]
  Extent of liver damage: 17-38%
  GPT: 135 ± 40 U/L
[4]; 50 mg/kg, 3 hours after APAP, rats
  prevention of liver necrosis and GPT elevation: partially prevented the development of liver necrosis and the elevation of the GPT level
[4]; [24]
  Extent of liver damage: 1-5%
  GPT: 47 ± 4 U/L
  LDH: 174 ± 35 U/L
[4]; [25]
  Extent of liver damage: 13-28%
  GPT: 153 ± 62 U/L
  LDH: 269 ± 92 U/L
[4]; 600 mg/kg, 1 hr after APAP, compared with DASO2 50 mg/kg, rats
  protection against liver toxicity: as effective as DASO2 (50 mg/kg) in preventing liver toxicity
[4]; 600 mg/kg, 6 hours after APAP, rats
  protection: partial protection
[4]; N-acetylcysteine dose versus DAS and DASO2 dose
  dosage needed for similar protection relative to DAS / DASO2: more than ten-fold higher

## CN/C(=N/CCSCc1nc[nH]c1C)NC#N [cimetidine]
[7]
  inhibition of acetaminophen bioactivation: inhibit acetaminophen bioactivation

## NCCS [cysteamine]
Acetaminophen overdose
  protection in acetaminophen overdose: some protection

## C[S+](C)[O-] [dimethyl sulfoxide]
[7]
  inhibition of acetaminophen bioactivation: inhibit acetaminophen bioactivation

## CCO [ethanol]
[7]
  inhibition of acetaminophen bioactivation: inhibit acetaminophen bioactivation
